From patent US20240109892A1, “POLY(ADP-RIBOSE) GLYCOHYDROLASE (PARG) INHIBITORS AGAINST COVID MACRODOMAIN AND METHODS OF USING THE SAME” (BOARD OF REGENTS, THE UNIVERSITY OF TEXAS SYSTEM, priority 2021, published 2024)
Like-named read-outs stand apart in the source and are kept apart here.

Assays:
CoV-2 Mac1 [1] = molecular target: T1, CoV-2 Mac1 (Severe acute respiratory syndrome coronavirus 2, UniProt P0DTC1); test: biochemical; assay type: binding
CoV-2 Mac1 [2] = molecular target: T1, CoV-2 Mac1; test: Microscale thermophoresis (MST) binding affinity measurements with CoV-2 Mac1; conditions: preliminary measurements
[3] = pH 7.5; cited from earlier work

SMILES	ΔG (CoV-2 Mac1 [1]; ITC, 25° C.)	ΔH (CoV-2 Mac1 [1]; ITC, 25° C.)	−TΔS (CoV-2 Mac1 [1]; ITC, 25° C.)	Kd (CoV-2 Mac1 [1]; ITC, 25° C., 25 mM HEPES pH 7.5, 150 mM NaCl, read-out: Kd)	Kd (CoV-2 Mac1 [1]; read-out: dissociation constant Kd)	binding to the Mac1 domain by ITC (CoV-2 Mac1 [1])	binding to the Mac1 domain by MST (CoV-2 Mac1 [2])	pKa of morpholine nitrogen atom [3]
Nc1ncnc2c1ncn2[C@@H]1O[C@H](COP(=O)(O)OP(=O)(O)OC[C@H]2OC(O)[C@H](O)[C@@H]2O)[C@@H](O)[C@H]1O (stereo partly shown) [ADPr, ADP-ribose]	-6.74 kcal/mol	-9.18 kcal/mol	2.43 kcal/mol	11.6 µM	10 to 12 µM	–	–	–
Cn1c(=O)c2[nH]c(SCCCNC(=S)NCCN3CCOCC3)nc2n(C)c1=O [PARG-329]	–	–	–	–	–	fails to detect a robust interaction	micromolar affinity	–
Cn1c(=O)c2[nH]c(SCCC(=O)NS(=O)(=O)CCN3CCOCC3)nc2n(C)c1=O [PARG-345, 3-((1,3-dimethyl-2,6-dioxo-2,3,6,7-tetrahydro-1H-purin-8-yl)thio)-N-((2-morpholinoethyl)sulfonyl)propanamide]	–	–	–	–	–	fails to detect a robust interaction	micromolar affinity	~8.3
